Patent US20180057462A1, “Substituted 2-difluoromethyl-nicotin(thio)carboxanilide derivatives and their use as fungicides” (BAYER CROPSCIENCE AKTIENGESELLSCHAFT, priority 2015, published 2018)

Test: LogP by HPLC on reversed phase columns (EEC directive 79/831 Annex V.A8), method [a]
Format: physicochemical
Conditions: LC-UV, acidic range, 0.1% formic acid in water and acetonitrile as eluent (linear gradient 10% to 95% acetonitrile)

Row | Structure (SMILES) | LogP[a]
1 | Cc1c(CCC2CC2(Cl)Cl)cccc1NC(=O)c1c(C(F)F)ccnc1C(F)F (stereo not shown) [Example 1] | 3.92
2 | O=C(Nc1cccc(-c2cc(F)ccc2F)c1Cl)c1cccnc1C(F)F [Example 2] | 3.11
3 | O=C(Nc1cccc(-c2ccccc2)c1Cl)c1cccnc1C(F)F [Example 3] | 3.05
4 | O=C(Nc1cccc(-c2ccccc2F)c1Cl)c1cccnc1C(F)F [Example 4] | 2.99
5 | O=C(Nc1cccc(-c2cccc(F)c2)c1Cl)c1cccnc1C(F)F [Example 5] | 3.12
6 | O=C(Nc1cccc(-c2ccc(F)cc2)c1Cl)c1cccnc1C(F)F [Example 6] | 3.12
7 | O=C(Nc1cccc(-c2ccccc2Cl)c1Cl)c1cccnc1C(F)F [Example 7] | 3.22
8 | O=C(Nc1cccc(-c2cccc(Cl)c2)c1Cl)c1cccnc1C(F)F [Example 8] | 3.49
9 | O=C(Nc1cccc(-c2ccc(Cl)cc2)c1Cl)c1cccnc1C(F)F [Example 9] | 3.54
10 | O=C(Nc1cccc(-c2ccc(F)cc2F)c1Cl)c1cccnc1C(F)F [Example 10] | 3.12
11 | CCC(C)Oc1cccc(NC(=O)c2cccnc2C(F)F)c1C (stereo not shown) [Example 11] | 3.02
12 | CCCC(CCC)Oc1cccc(NC(=O)c2cccnc2C(F)F)c1C [Example 12] | 4.26
13 | Cc1c(NC(=O)c2cccnc2C(F)F)cccc1OCC(C)C [Example 13] | 3.17
14 | Cc1c(NC(=O)c2cccnc2C(F)F)cccc1OC(C)C(C)C (stereo not shown) [Example 14] | 3.41
15 | Cc1c(NC(=O)c2cccnc2C(F)F)cccc1OC(C)CC(C)C (stereo not shown) [Example 15] | 3.79
16 | Cc1c(NC(=O)c2cccnc2C(F)F)cccc1OC1CCCCC1 [Example 16] | 3.52
17 | Cc1c(NC(=O)c2cccnc2C(F)F)cccc1OCc1ncc(C(F)(F)F)cc1Cl [Example 17] | 3.23
18 | Cc1c(NC(=O)c2cccnc2C(F)F)cccc1Oc1ncc(C(F)(F)F)cc1Cl [Example 18] | 3.48
19 | Cc1c(NC(=O)c2cccnc2C(F)F)cccc1OCc1ccc(Br)cc1 [Example 19] | 3.55
20 | CCOCC(C)Oc1cccc(NC(=O)c2cccnc2C(F)F)c1C (stereo not shown) [Example 20] | 2.57
21 | C#CCOCC(C)Oc1cccc(NC(=O)c2cccnc2C(F)F)c1C (stereo not shown) [Example 21] | 2.47
22 | CCCOCC(C)Oc1cccc(NC(=O)c2cccnc2C(F)F)c1C (stereo not shown) [Example 22] | 3.04

Row | Structure (SMILES) | LogP[a]
23 | Cc1c(NC(=O)c2cccnc2C(F)F)cccc1OC(C)COCC(C)C (stereo not shown) [Example 23] | 3.55
24 | Cc1c(NC(=O)c2cccnc2C(F)F)cccc1OC(C)COC(C)(C)C (stereo not shown) [Example 24] | 3.31
25 | Cc1c(NC(=O)c2cccnc2C(F)F)cccc1OC(C)C1(Cl)CC1 (stereo not shown) [Example 25] | 3.06
26 | Cc1c(NC(=O)c2cccnc2C(F)F)cccc1OCCC1CC1 [Example 26] | 3.17
27 | Cc1c(NC(=O)c2cccnc2C(F)F)cccc1OC(C)C1CCOC1 (stereo not shown) [Example 27] | 2.26
28 | CO/N=C\C(C)Oc1cccc(NC(=O)c2cccnc2C(F)F)c1C (stereo not shown) [Example 28] | 2.49
29 | CCO/N=C\C(C)Oc1cccc(NC(=O)c2cccnc2C(F)F)c1C (stereo not shown) [Example 29] | 2.82
30 | Cc1c(NC(=O)c2cccnc2C(F)F)cccc1OC(C)COc1ccccc1 (stereo not shown) [Example 30] | 3.33
31 | Cc1ccc(OCC(C)Oc2cccc(NC(=O)c3cccnc3C(F)F)c2C)cc1 (stereo not shown) [Example 31] | 3.68
32 | Cc1ccccc1OCC(C)Oc1cccc(NC(=O)c2cccnc2C(F)F)c1C (stereo not shown) [Example 32] | 3.74
33 | Cc1cccc(OCC(C)Oc2cccc(NC(=O)c3cccnc3C(F)F)c2C)c1 (stereo not shown) [Example 33] | 3.68
34 | Cc1c(NC(=O)c2cccnc2C(F)F)cccc1OC(C)COc1cccc(Cl)c1 (stereo not shown) [Example 34] | 3.76
35 | Cc1c(NC(=O)c2cccnc2C(F)F)cccc1OC(C)COc1ccccc1Cl (stereo not shown) [Example 35] | 3.59
36 | Cc1c(NC(=O)c2cccnc2C(F)F)cccc1OCc1ccc(F)cc1 [Example 36] | 3.06
37 | Cc1c(NC(=O)c2cccnc2C(F)F)cccc1OCc1ccccc1Cl [Example 37] | 3.41
38 | Cc1c(NC(=O)c2cccnc2C(F)F)cccc1OCc1cccc(C(F)(F)F)c1 [Example 38] | 3.52
39 | Cc1c(NC(=O)c2cccnc2C(F)F)cccc1OCc1ccccc1C(F)(F)F [Example 39] | 3.55
40 | Cc1c(NC(=O)c2cccnc2C(F)F)cccc1OCc1cccc(F)c1 [Example 40] | 3.09
41 | Cc1c(NC(=O)c2cccnc2C(F)F)cccc1OCc1ccccc1F [Example 41] | 3.06
42 | Cc1c(NC(=O)c2cccnc2C(F)F)cccc1OCc1cc(Cl)cc(Cl)c1 [Example 42] | 3.96
43 | Cc1c(NC(=O)c2cccnc2C(F)F)cccc1OCc1cc(Cl)ccc1Cl [Example 43] | 3.85
44 | Cc1c(NC(=O)c2cccnc2C(F)F)cccc1OCc1cccc(Cl)c1Cl [Example 45] | 3.83

Row | Structure (SMILES) | LogP[a]
45 | Cc1c(NC(=O)c2cccnc2C(F)F)cccc1OCc1ccc(Cl)cc1Cl [Example 46] | 3.99
46 | Cc1c(NC(=O)c2cccnc2C(F)F)cccc1OC(C)c1ccc(Cl)cc1 (stereo not shown) [Example 47] | 3.65
47 | Cc1c(NC(=O)c2cccnc2C(F)F)cccc1OC(C)c1ccc(Cl)c(Cl)c1 (stereo not shown) [Example 48] | 4.01
48 | Cc1c(NC(=O)c2cccnc2C(F)F)cccc1OC(C)c1ccc(F)cc1 (stereo not shown) [Example 49] | 3.29
49 | Cc1c(NC(=O)c2cccnc2C(F)F)cccc1OC(C)c1ccccc1Cl (stereo not shown) [Example 50] | 3.79
50 | Cc1c(NC(=O)c2cccnc2C(F)F)cccc1OC(C)c1cccc(Cl)c1 (stereo not shown) [Example 51] | 3.63
51 | Cc1c(NC(=O)c2cccnc2C(F)F)cccc1OC(C)c1c(F)cccc1F (stereo not shown) [Example 52] | 3.33
52 | Cc1c(NC(=O)c2cccnc2C(F)F)cccc1OC(C)c1cccc(C(F)(F)F)c1 (stereo not shown) [Example 53] | 3.70
53 | Cc1c(NC(=O)c2cccnc2C(F)F)cccc1OCc1cccc(Br)c1 [Example 54] | 3.52
54 | Cc1c(NC(=O)c2cccnc2C(F)F)cccc1OC(C)c1ccccc1C(F)(F)F (stereo not shown) [Example 55] | 3.87
55 | Cc1c(NC(=O)c2cccnc2C(F)F)cccc1OC(C)c1cc(Cl)ccc1Cl (stereo not shown) [Example 56] | 4.15
56 | Cc1c(NC(=O)c2cccnc2C(F)F)cccc1OC(C)c1ccccc1F (stereo not shown) [Example 57] | 3.37
57 | Cc1c(NC(=O)c2cccnc2C(F)F)cccc1OCCc1ccc(C(F)(F)F)cc1 [Example 58] | 3.72
58 | Cc1c(NC(=O)c2cccnc2C(F)F)cccc1OCCc1ccccc1C(F)(F)F [Example 59] | 3.74
59 | Cc1c(NC(=O)c2cccnc2C(F)F)cccc1OCCc1cccc(C(F)(F)F)c1 [Example 60] | 3.68
60 | Cc1c(NC(=O)c2cccnc2C(F)F)cccc1OCCc1cccc(F)c1 [Example 61] | 3.29
61 | Cc1c(NC(=O)c2cccnc2C(F)F)cccc1OCCc1ccccc1F [Example 62] | 3.31
62 | Cc1c(NC(=O)c2cccnc2C(F)F)cccc1OCCc1ccc(F)cc1 [Example 63] | 3.29
63 | Cc1c(NC(=O)c2cccnc2C(F)F)cccc1OCCc1ccccc1Cl [Example 64] | 3.65
64 | Cc1c(NC(=O)c2cccnc2C(F)F)cccc1OCCc1cccc(Cl)c1 [Example 65] | 3.61
